The record followed here is US7241776B2, “Cyanoamidine P2X7 antagonists for the treatment of pain” (Abbott Laboratories, priority 2004, dated 2007).

A word on the melting point: it is the temperature of the solid-liquid transition.

In the case of `Cc1ccccc1CC(=NC#N)NC(NC(=O)CF)C(C)(C)C` (stereo not drawn), the melting point was in the range of 151 to 152 °C.

On to `Cc1ccccc1CC(=NC#N)NC(NC(=O)Cc1ccccc1)C(C)(C)C` (stereo not drawn) [Example 1, N-(1-{[N-cyano-2-(2-methylphenyl)ethanimidoyl]amino}-2,2-dimethylpropyl)-2-phenylacetamide], for which the melting point is 182 to 183 °C.

As for `Cc1ccccc1CC(=NC#N)NC(NC(=O)Cc1ccc(Cl)cc1)C(C)(C)C` (stereo not drawn) [Example 2, 2-(4-chlorophenyl)-N-(1-{[N-cyano-2-(2-methylphenyl)ethanimidoyl]amino}-2,2-dimethylpropyl)acetamide], the melting point was 183 to 185 °C. As for `COc1ccc(CC(=O)NC(NC(Cc2ccccc2C)=NC#N)C(C)(C)C)cc1OC` (stereo not drawn) [Example 3, N-(1-{[N-cyano-2-(2-methylphenyl)ethanimidoyl]amino}-2,2-dimethylpropyl)-2-(3,4-dimethoxyphenyl)acetamide], the melting point is 153 to 155 °C. With `COc1ccc(CC(=O)NC(NC(Cc2ccccc2C)=NC#N)C(C)(C)C)cc1` (stereo not drawn) [Example 4, N-(1-{[N-cyano-2-(2-methylphenyl)ethanimidoyl]amino}-2,2-dimethylpropyl)-2-(4-methoxyphenyl)acetamide], the melting point lay in the range of 199 to 201 °C. Turning to `Cc1ccccc1CC(=NC#N)NC(NC(=O)Cc1ccc2c(c1)OCO2)C(C)(C)C` (stereo not drawn) [Example 5, 2-(1,3-benzodioxol-5-yl)-N-(1-{[N-cyano-2-(2-methylphenyl)ethanimidoyl]amino}-2,2-dimethylpropyl)acetamide], the melting point lay within 167 to 169 °C. As to `Cc1ccccc1CC(=NC#N)NC(NC(=O)Cc1ccc(C#N)cc1)C(C)(C)C` (stereo not drawn) [Example 6, N-(1-{[N-cyano-2-(2-methylphenyl)ethanimidoyl]amino}-2,2-dimethylpropyl)-2-(4-cyanophenyl)acetamide], the melting point is 199 to 201 °C.

The molecule `Cc1ccccc1CC(=NC#N)NC(NC(=O)Cc1ccc2c(c1)OCCO2)C(C)(C)C` (stereo not drawn) [Example 7, N-(1-{[N-cyano-2-(2-methylphenyl)ethanimidoyl]amino}-2,2-dimethylpropyl)-2-(2,3-dihydro-1,4-benzodioxin-6-yl)acetamide] registered a melting point of 180 to 181 °C. `Cc1ccccc1CC(=NC#N)NC(NC(=O)Cc1cccc2ccccc12)C(C)(C)C` (stereo not drawn) [Example 9, N-(1-{[N-cyano-2-(2-methylphenyl)ethanimidoyl]amino}-2,2-dimethylpropyl)-2-(1-naphthyl)acetamide]: the melting point was in the range of 97 to 100 °C. Regarding `Cc1ccccc1CC(=NC#N)NC(NC(=O)Cc1ccc2ncccc2c1)C(C)(C)C` (stereo not drawn) [Example 10, N-(1-{[N-cyano-2-(2-methylphenyl)ethanimidoyl]amino}-2,2-dimethylpropyl)-2-quinolin-6-ylacetamide], the melting point was in the range of 172 to 173 °C. `Cc1ccccc1CC(=NC#N)NC(NC(=O)Cc1ccc2cccnc2c1)C(C)(C)C` (stereo not drawn) [Example 11, N-(1-{[N-cyano-2-(2-methylphenyl)ethanimidoyl]amino}-2,2-dimethylpropyl)-2-quinolin-7-ylacetamide]: the melting point lay in the range of 165 to 166 °C. For the molecule `Cc1ccccc1CC(=NC#N)NC(NC(=O)CCCc1cccs1)C(C)(C)C` (stereo not drawn) [Example 12, N-(1-{[N-cyano-2-(2-methylphenyl)ethanimidoyl]amino}-2,2-dimethylpropyl)-4-thien-2-ylbutanamide], the melting point was in the range of 154 to 155 °C. Consider `Cc1ccccc1CC(=NC#N)NC(NC(=O)Cc1ccc(F)c(F)c1)C(C)(C)C` (stereo not drawn) [Example 13, N-(1-{[N-cyano-2-(2-methylphenyl)ethanimidoyl]amino}-2,2-dimethylpropyl)-2-(3,4-difluorophenyl)acetamide], for which the melting point lay within 178 to 179 °C.

`CCSc1ccc(CC(=O)NC(NC(Cc2ccccc2C)=NC#N)C(C)(C)C)cc1` (stereo not drawn) [Example 14, N-(1-{[N-cyano-2-(2-methylphenyl)ethanimidoyl]amino}-2,2-dimethylpropyl)-2-[4-(ethylthio)phenyl]acetamide] had a melting point of 196 to 198 °C. Regarding `CSc1ccc(CC(=O)NC(NC(Cc2ccccc2C)=NC#N)C(C)(C)C)cc1` (stereo not drawn) [Example 15, N-(1-{[N-cyano-2-(2-methylphenyl)ethanimidoyl]amino}-2,2-dimethylpropyl)-2-[4-(methylthio)phenyl]acetamide], the melting point was in the range of 201 to 202 °C. Under `COc1ccc(CCCC(=O)NC(NC(Cc2ccccc2C)=NC#N)C(C)(C)C)cc1` (stereo not drawn) [Example 16, N-(1-{[N-cyano-2-(2-methylphenyl)ethanimidoyl]amino}-2,2-dimethylpropyl)-4-(4-methoxyphenyl)butanamide] stands 171 to 172 °C. `Cc1ccccc1CC(=NC#N)NC(NC(=O)CCCCc1ccccc1)C(C)(C)C` (stereo not drawn) [Example 17, N-(1-{[N-cyano-2-(2-methylphenyl)ethanimidoyl]amino}-2,2-dimethylpropyl)-5-phenylpentanamide]: the melting point lay within 151 to 152 °C. Molecule `Cc1ccccc1CC(=NC#N)NC(NC(=O)Cc1cccnc1)C(C)(C)C` (stereo not drawn) [Example 18, N-(1-{[N-cyano-2-(2-methylphenyl)ethanimidoyl]amino}-2,2-dimethylpropyl)-2-pyridin-3-ylacetamide] returned a melting point of 84 to 86 °C. Turning to `Cc1ccccc1C(=NC#N)NC(NC(=O)Cc1ccc(Cl)cc1)C(C)(C)C` (stereo not drawn) [Example 19, 2-(4-chlorophenyl)-N-(1-{[(cyanoimino)(2-methylphenyl)methyl]amino}-2,2-dimethylpropyl)acetamide], the melting point fell in the range of 109 to 110 °C.

As to `Cc1ncccc1CC(=NC#N)NC(NC(=O)Cc1ccc(Cl)cc1)C(C)(C)C` (stereo not drawn) [Example 20, 2-(4-chlorophenyl)-N-(1-{[N-cyano-2-(2-methylpyridin-3-yl)ethanimidoyl]amino}-2,2-dimethylpropyl)acetamide], the melting point lay within 118 to 119 °C. Consider `COc1ccc(CC(=O)NC(NC(Cc2cccnc2C)=NC#N)C(C)(C)C)cc1OC` (stereo not drawn) [Example 21, N-(1-{[N-cyano-2-(2-methylpyridin-3-yl)ethanimidoyl]amino}-2,2-dimethylpropyl)-2-(3,4-dimethoxyphenyl)acetamide], for which the melting point was in the range of 164 to 165 °C. Under `CC(C)(C)C(NC(=O)Cc1ccc(Cl)cc1)NC(Cc1cccc2ncccc12)=NC#N` (stereo not drawn) [Example 23, 2-(4-chlorophenyl)-N-(1-{[N-cyano-2-quinolin-5-ylethanimidoyl]amino}-2,2-dimethylpropyl)acetamide] stands 186 to 188 °C; under `COc1ccc(CC(=O)NC(NC(=NC#N)c2cccc3ncccc23)C(C)(C)C)cc1OC` (stereo not drawn) [Example 24, N-(1-{[(cyanoimino)(quinolin-5-yl)methyl]amino}-2,2-dimethylpropyl)-2-(3,4-dimethoxyphenyl)acetamide], 203 to 205 °C. In the case of `COc1ccc(CCC(C)NC(Cc2ccccc2C)=NC#N)cc1` (stereo not drawn) [Example 35, N′-cyano-N-[3-(4-methoxyphenyl)-1-methylpropyl]-2-(2-methylphenyl)ethanimidamide], the melting point was in the range of 103 to 104 °C. On to `N#CN=C(Cc1ccccc1F)N[C@@H]1CCc2ccccc21` [Example 50, N′-cyano-N-[(1R)-2,3-dihydro-1H-inden-1-yl]-2-(2-fluorophenyl)ethanimidamide], for which the melting point lay within 141 to 142 °C.

As for `CC[C@@H](NC(Cc1cccnc1C)=NC#N)c1ccccc1` [Example 57, N′-cyano-2-(2-methylpyridin-3-yl)-N-[(1R)-1-phenylpropyl]ethanimidamide], the melting point is 52 to 54 °C. `Cc1ncccc1CC(=NC#N)N[C@@H]1CCCc2ccccc21` [Example 58, N′-cyano-2-(2-methylpyridin-3-yl)-N-[(1R)-1,2,3,4-tetrahydronaphthalen-1-yl]ethanimidamide]: the melting point fell in the range of 193 to 194 °C.
